Laboratory results as given in ChEMBL document CHEMBL4229333, “Effects of rigidity on the selectivity of protein kinase inhibitors” (Eur J Med Chem, 2018).

What was measured:
[1] = target: Aurora kinase A (Homo sapiens) (UniProt O14965); assay: Inhibition of AURORA-A (unknown origin) at 1 uM by mobility shift microfluidics platform based assay relative to control
[2] = target: Aurora kinase B (Homo sapiens) (UniProt Q96GD4); assay: Inhibition of AURORA-B (unknown origin) at 1 uM by mobility shift microfluidics platform based assay relative to control
Chain of Aurora kinase B (Homo sapiens) (Q96GD4 whole entry): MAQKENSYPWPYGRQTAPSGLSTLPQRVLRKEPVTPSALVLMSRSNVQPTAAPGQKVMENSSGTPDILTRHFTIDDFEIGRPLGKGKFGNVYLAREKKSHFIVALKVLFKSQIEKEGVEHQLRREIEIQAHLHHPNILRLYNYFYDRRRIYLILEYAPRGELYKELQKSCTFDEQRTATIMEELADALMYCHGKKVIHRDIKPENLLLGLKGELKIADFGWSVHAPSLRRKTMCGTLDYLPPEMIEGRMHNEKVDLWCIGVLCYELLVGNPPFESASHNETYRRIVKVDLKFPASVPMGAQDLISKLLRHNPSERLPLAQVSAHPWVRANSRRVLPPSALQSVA

[3] = target: Serine/threonine-protein kinase B-raf (Homo sapiens) (UniProt P15056); assay: Inhibition of BRAF (unknown origin) at 1 uM by mobility shift microfluidics platform based assay relative to control
Chain of Serine/threonine-protein kinase B-raf (Homo sapiens) (P15056 whole entry): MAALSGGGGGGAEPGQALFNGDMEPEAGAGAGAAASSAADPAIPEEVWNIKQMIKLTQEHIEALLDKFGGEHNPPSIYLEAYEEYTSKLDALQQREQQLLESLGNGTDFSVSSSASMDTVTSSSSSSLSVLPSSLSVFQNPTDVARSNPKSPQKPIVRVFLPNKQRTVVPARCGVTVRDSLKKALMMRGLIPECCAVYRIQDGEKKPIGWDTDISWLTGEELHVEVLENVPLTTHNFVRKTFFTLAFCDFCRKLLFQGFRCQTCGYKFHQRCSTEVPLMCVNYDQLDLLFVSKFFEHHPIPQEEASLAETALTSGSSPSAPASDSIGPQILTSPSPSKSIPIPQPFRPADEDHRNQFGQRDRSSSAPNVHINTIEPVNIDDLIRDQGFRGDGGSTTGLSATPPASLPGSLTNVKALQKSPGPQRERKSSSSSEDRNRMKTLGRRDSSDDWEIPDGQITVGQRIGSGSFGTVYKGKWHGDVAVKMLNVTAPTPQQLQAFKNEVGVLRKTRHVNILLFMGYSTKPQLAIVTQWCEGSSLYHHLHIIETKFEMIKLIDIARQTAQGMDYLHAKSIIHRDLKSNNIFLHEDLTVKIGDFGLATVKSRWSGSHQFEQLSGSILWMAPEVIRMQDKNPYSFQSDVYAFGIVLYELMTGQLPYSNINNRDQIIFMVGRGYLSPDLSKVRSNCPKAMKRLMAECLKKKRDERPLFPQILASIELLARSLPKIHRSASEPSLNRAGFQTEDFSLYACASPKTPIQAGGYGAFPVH

[4] = target: Tyrosine-protein kinase BTK (Homo sapiens) (UniProt Q06187); assay: Inhibition of BTK (unknown origin) at 1 uM by mobility shift microfluidics platform based assay relative to control
Chain of Tyrosine-protein kinase BTK (Homo sapiens) (Q06187 whole entry): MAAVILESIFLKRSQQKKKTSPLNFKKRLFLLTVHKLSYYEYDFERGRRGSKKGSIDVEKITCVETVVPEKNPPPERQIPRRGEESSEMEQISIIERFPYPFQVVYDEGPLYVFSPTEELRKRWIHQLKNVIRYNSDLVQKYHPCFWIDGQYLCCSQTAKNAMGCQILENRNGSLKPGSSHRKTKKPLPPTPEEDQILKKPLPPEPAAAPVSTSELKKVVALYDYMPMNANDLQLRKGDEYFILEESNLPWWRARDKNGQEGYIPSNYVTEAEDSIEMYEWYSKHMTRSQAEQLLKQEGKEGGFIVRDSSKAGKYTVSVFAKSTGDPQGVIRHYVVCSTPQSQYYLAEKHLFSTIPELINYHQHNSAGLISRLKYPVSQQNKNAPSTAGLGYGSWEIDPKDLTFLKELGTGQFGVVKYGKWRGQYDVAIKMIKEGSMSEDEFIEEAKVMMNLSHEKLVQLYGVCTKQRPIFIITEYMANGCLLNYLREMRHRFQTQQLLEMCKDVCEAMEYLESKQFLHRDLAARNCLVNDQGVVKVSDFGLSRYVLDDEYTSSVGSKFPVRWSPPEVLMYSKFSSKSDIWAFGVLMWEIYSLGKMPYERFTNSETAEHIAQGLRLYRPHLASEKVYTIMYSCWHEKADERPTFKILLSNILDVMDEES

[5] = target: Calcium/calmodulin-dependent protein kinase type II subunit delta (Homo sapiens) (UniProt Q13557); assay: Inhibition of CAMK2D (unknown origin) at 1 uM by mobility shift microfluidics platform based assay relative to control
[6] = target: Cyclin-dependent kinase 2 (Homo sapiens) (UniProt P24941); assay: Inhibition of CDK2 (unknown origin) at 1 uM by mobility shift microfluidics platform based assay relative to control
[7] = target: Casein kinase I isoform epsilon (Homo sapiens) (UniProt P49674); assay: Inhibition of CK1-epsilon (unknown origin) at 1 uM by mobility shift microfluidics platform based assay relative to control
[8] = target: Discoidin domain-containing receptor 2 (Homo sapiens) (UniProt Q16832); assay: Inhibition of DDR2 (unknown origin) at 1 uM by mobility shift microfluidics platform based assay relative to control
[9] = target: Dual specificity tyrosine-phosphorylation-regulated kinase 1B (Homo sapiens) (UniProt Q9Y463); assay: Inhibition of DYRK1B (unknown origin) at 1 uM by mobility shift microfluidics platform based assay relative to control
[10] = target: Ephrin type-A receptor 3 (Homo sapiens) (UniProt P29320); assay: Inhibition of EPH-A3 (unknown origin) at 1 uM by mobility shift microfluidics platform based assay relative to control
[11] = target: Focal adhesion kinase 1 (Homo sapiens) (UniProt Q05397); assay: Inhibition of FAK (unknown origin) at 1 uM by mobility shift microfluidics platform based assay relative to control
[12] = target: Tyrosine-protein kinase Fer (Homo sapiens) (UniProt P16591); assay: Inhibition of FER (unknown origin) at 1 uM by mobility shift microfluidics platform based assay relative to control
[13] = target: Tyrosine-protein kinase Fes/Fps (Homo sapiens) (UniProt P07332); assay: Inhibition of FES (unknown origin) at 1 uM by mobility shift microfluidics platform based assay relative to control
[14] = target: Fibroblast growth factor receptor 2 (Homo sapiens) (UniProt P21802); assay: Inhibition of FGFR2 (unknown origin) at 1 uM by mobility shift microfluidics platform based assay relative to control
[15] = target: Receptor-type tyrosine-protein kinase FLT3 (Homo sapiens) (UniProt P36888); assay: Inhibition of FLT3 (unknown origin) at 1 uM by mobility shift microfluidics platform based assay relative to control
Chain of Receptor-type tyrosine-protein kinase FLT3 (Homo sapiens) (P36888 whole entry): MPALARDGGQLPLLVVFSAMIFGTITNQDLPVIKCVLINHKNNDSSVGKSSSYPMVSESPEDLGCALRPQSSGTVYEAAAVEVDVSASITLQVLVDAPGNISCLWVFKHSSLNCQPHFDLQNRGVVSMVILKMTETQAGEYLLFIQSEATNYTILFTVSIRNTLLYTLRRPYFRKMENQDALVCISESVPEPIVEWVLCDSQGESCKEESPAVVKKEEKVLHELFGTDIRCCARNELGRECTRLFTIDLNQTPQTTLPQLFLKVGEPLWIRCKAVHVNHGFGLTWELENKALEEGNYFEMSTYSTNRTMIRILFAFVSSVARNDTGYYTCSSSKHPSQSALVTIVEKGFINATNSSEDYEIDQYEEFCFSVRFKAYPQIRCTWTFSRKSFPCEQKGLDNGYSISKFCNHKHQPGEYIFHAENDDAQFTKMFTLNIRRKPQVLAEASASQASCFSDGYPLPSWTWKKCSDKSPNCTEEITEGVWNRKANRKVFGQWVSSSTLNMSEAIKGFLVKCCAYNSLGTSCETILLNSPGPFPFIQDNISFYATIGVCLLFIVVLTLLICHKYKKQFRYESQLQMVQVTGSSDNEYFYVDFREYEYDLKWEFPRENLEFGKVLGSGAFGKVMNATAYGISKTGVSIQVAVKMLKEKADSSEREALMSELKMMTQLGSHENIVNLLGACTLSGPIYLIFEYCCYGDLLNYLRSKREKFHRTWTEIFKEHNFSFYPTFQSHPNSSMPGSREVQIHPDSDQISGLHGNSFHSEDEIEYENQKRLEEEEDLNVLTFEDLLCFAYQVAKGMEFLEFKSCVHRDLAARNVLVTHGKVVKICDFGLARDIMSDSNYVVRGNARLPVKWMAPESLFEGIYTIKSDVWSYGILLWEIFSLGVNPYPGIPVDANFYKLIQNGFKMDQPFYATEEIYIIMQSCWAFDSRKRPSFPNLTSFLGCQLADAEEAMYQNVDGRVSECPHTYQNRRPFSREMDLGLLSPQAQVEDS

[16] = target: Glycogen synthase kinase-3 alpha (Homo sapiens) (UniProt P49840); assay: Inhibition of GSK-3-alpha (unknown origin) at 1 uM by mobility shift microfluidics platform based assay relative to control
[17] = target: Glycogen synthase kinase-3 beta (Homo sapiens) (UniProt P49841); assay: Inhibition of GSK-3-beta (unknown origin) at 1 uM by mobility shift microfluidics platform based assay relative to control
[18] = target: Insulin-like growth factor 1 receptor (Homo sapiens) (UniProt P08069); assay: Inhibition of IGF1R (unknown origin) at 1 uM by mobility shift microfluidics platform based assay relative to control
[19] = target: Inhibitor of nuclear factor kappa-B kinase subunit alpha (Homo sapiens) (UniProt O15111); assay: Inhibition of IKK-alpha (unknown origin) at 1 uM by mobility shift microfluidics platform based assay relative to control
[20] = target: Insulin receptor (Homo sapiens) (UniProt P06213); assay: Inhibition of INSR (unknown origin) at 1 uM by mobility shift microfluidics platform based assay relative to control
[21] = target: Insulin receptor-related protein (Homo sapiens) (UniProt P14616); assay: Inhibition of IRR (unknown origin) at 1 uM by mobility shift microfluidics platform based assay relative to control
[22] = target: Mitogen-activated protein kinase kinase kinase kinase 4 (Homo sapiens) (UniProt O95819); assay: Inhibition of MAP4K4 (unknown origin) at 1 uM by mobility shift microfluidics platform based assay relative to control
[23] = target: MAP kinase-activated protein kinase 3 (Homo sapiens) (UniProt Q16644); assay: Inhibition of MAPKAPK3 (unknown origin) at 1 uM by mobility shift microfluidics platform based assay relative to control
[24] = target: MAP/microtubule affinity-regulating kinase 3 (Homo sapiens) (UniProt P27448); assay: Inhibition of MARK3 (unknown origin) at 1 uM by mobility shift microfluidics platform based assay relative to control
Chain of MAP/microtubule affinity-regulating kinase 3 (Homo sapiens) (P27448 whole entry, looked up): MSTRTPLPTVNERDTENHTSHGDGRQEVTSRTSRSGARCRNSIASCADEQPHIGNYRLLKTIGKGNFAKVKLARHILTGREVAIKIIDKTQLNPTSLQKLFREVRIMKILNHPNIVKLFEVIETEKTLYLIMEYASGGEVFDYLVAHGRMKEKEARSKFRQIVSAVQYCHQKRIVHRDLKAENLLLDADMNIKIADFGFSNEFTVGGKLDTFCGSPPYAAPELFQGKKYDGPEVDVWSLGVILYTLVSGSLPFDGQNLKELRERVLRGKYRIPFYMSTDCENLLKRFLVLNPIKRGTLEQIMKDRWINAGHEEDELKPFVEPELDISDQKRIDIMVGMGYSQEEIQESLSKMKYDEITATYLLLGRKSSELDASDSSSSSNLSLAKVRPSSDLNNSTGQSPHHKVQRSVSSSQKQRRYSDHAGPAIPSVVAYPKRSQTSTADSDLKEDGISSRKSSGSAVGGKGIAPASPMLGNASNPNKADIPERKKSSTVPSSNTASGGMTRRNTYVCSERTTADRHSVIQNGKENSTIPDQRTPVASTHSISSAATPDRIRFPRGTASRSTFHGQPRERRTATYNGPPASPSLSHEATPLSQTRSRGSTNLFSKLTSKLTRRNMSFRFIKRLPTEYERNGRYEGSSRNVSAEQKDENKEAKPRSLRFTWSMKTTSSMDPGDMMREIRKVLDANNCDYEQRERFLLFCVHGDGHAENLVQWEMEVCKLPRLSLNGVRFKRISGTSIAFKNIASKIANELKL

[25] = target: Serine/threonine-protein kinase 4 (Homo sapiens) (UniProt Q13043); assay: Inhibition of MST1 (unknown origin) at 1 uM by mobility shift microfluidics platform based assay relative to control
[26] = target: Serine/threonine-protein kinase 26 (Homo sapiens) (UniProt Q9P289); assay: Inhibition of MST4 (unknown origin) at 1 uM by mobility shift microfluidics platform based assay relative to control
Chain of Serine/threonine-protein kinase 26 (Homo sapiens) (Q9P289 2-416 limits assumed): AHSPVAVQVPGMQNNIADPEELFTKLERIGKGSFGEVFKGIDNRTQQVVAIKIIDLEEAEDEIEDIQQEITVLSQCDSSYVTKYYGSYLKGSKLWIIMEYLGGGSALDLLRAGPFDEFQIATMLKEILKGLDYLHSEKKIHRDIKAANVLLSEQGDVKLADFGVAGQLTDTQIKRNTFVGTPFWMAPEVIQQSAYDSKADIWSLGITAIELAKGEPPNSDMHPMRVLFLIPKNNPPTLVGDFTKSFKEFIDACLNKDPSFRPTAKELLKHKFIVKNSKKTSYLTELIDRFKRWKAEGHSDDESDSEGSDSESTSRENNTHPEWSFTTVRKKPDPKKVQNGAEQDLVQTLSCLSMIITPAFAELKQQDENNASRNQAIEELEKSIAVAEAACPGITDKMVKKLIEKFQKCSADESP

[27] = target: Serine/threonine-protein kinase Nek2 (Homo sapiens) (UniProt P51955); assay: Inhibition of NEK2 (unknown origin) at 1 uM by mobility shift microfluidics platform based assay relative to control
[28] = target: Serine/threonine-protein kinase pim-3 (Homo sapiens) (UniProt Q86V86); assay: Inhibition of PIM3 (unknown origin) at 1 uM by mobility shift microfluidics platform based assay relative to control
[29] = target: Protein kinase C beta type (Homo sapiens) (UniProt P05771); assay: Inhibition of PKC-beta1 (unknown origin) at 1 uM by mobility shift microfluidics platform based assay relative to control
[30] = target: Ribosomal protein S6 kinase alpha-3 (Homo sapiens) (UniProt P51812); assay: Inhibition of RSK2 (unknown origin) at 1 uM by mobility shift microfluidics platform based assay relative to control
[31] = target: Serine/threonine-protein kinase TBK1 (Homo sapiens) (UniProt Q9UHD2); assay: Inhibition of TBK1 (unknown origin) at 1 uM by mobility shift microfluidics platform based assay relative to control
[32] = target: Activated CDC42 kinase 1 (Homo sapiens) (UniProt Q07912); assay: Inhibition of TNK2 (unknown origin) at 1 uM by mobility shift microfluidics platform based assay relative to control
[33] = target: Testis-specific serine/threonine-protein kinase 2 (Homo sapiens) (UniProt Q96PF2); assay: Inhibition of TSSK2 (unknown origin) at 1 uM by mobility shift microfluidics platform based assay relative to control
Chain of Testis-specific serine/threonine-protein kinase 2 (Homo sapiens) (Q96PF2 whole entry): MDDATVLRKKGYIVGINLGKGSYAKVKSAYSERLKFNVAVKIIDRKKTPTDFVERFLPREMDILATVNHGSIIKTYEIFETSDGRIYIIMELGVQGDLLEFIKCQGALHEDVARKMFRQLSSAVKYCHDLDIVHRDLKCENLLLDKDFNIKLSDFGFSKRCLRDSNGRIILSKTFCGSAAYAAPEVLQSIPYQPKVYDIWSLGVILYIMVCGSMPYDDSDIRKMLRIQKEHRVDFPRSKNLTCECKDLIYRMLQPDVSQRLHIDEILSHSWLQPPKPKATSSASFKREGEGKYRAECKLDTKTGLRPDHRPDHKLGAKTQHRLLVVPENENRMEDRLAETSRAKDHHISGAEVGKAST

[34] = target: Tyrosine-protein kinase Yes (Homo sapiens) (UniProt P07947); assay: Inhibition of YES (unknown origin) at 1 uM by mobility shift microfluidics platform based assay relative to control

Chain of Aurora kinase A (Homo sapiens) (O14965 whole entry): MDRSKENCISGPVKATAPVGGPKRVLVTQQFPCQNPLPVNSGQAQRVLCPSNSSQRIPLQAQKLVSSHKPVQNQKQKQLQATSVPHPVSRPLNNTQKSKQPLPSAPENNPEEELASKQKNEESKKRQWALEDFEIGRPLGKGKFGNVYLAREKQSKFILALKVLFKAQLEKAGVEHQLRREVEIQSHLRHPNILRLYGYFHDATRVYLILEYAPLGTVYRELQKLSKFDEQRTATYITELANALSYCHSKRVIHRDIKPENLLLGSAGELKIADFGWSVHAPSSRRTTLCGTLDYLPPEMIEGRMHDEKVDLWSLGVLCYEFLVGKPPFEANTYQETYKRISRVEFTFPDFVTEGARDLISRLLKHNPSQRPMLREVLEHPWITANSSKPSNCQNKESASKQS

SMILES | inhibition [1] [%] | inhibition [2] [%] | inhibition [3] [%] | inhibition [4] [%] | inhibition [5] [%] | inhibition [6] [%] | inhibition [7] [%] | inhibition [8] [%] | inhibition [9] [%] | inhibition [10] [%] | inhibition [11] [%] | inhibition [12] [%] | inhibition [13] [%] | inhibition [14] [%] | inhibition [15] [%] | inhibition [16] [%] | inhibition [17] [%] | inhibition [18] [%] | inhibition [19] [%] | inhibition [20] [%] | also measured
CC(C)n1nc(C#Cc2cccc3cc(-c4cccc(C(F)(F)F)c4)ncc23)c2c(N)ncnc21 | 29 | 27 | 92 | 5 | 0 | 1 | 8 | 96 | 1 | 76 | 3 | 12 | 0 | 96 | 7 | 6 | 3 | 2 | -3 | 5 | inhibition [21]: -3%; inhibition [22]: 3%; inhibition [23]: 3%; inhibition [24]: 1%; inhibition [25]: 4%; inhibition [26]: -1%; inhibition [27]: 0%; inhibition [28]: 1%; inhibition [29]: 2%; inhibition [30]: 0%; inhibition [31]: 1%; inhibition [32]: 3%; inhibition [33]: 1%; inhibition [34]: 88%
CC(C)n1nc(C#Cc2cccc(NC(=O)c3cccc(C(F)(F)F)c3)c2)c2c(N)ncnc21 | 90 | 82 | 101 | 71 | -1 | 3 | 27 | 93 | 0 | 98 | -8 | 40 | 21 | 99 | 29 | 5 | 19 | 1 | 26 | 12 | inhibition [21]: 2%; inhibition [22]: 69%; inhibition [23]: 13%; inhibition [24]: -1%; inhibition [25]: 10%; inhibition [26]: 9%; inhibition [27]: -1%; inhibition [28]: 0%; inhibition [29]: -3%; inhibition [30]: 0%; inhibition [31]: 6%; inhibition [32]: 13%; inhibition [33]: -10%; inhibition [34]: 101%
